The subject of data set [1] is RhoA. Details: method as in PMID 26071482. Particulars: cited from earlier work.
Data set [2] can be described thus: Ketorolac enantiomers in mouse blood/serum by HPLC after two-week treatment. The data set is classed as in vivo, mice. From the text: For two-week tumor studies, 1 × 10^6 non-treated SKOV3ip-GFP cells were i.p. injected. All mice started R-ketorolac treatment one day prior to cell injection and continued treatment until conclusion of the study 14 days later. Mice were imaged using a Light Tools imaging system (Synopsys Optical Solutions, Westminster CO) with long pass GFP filters. Three images per mouse were captured to ensure all tumors were counted. Green fluorescent tumors were identified and counted in the peritoneal cavity as single tumors if there was a distinct border of non-fluorescent tissue. […] Blood was collected via cardiac puncture and ketorolac enantiomer concentrations were measured by HPLC analysis as described in Supplemental Methods (Additional File 1: Supplemental Methods). […]
SKOV3ip cells were modified to express GFP-Rac1 by transfection with pcDNA3-EGFP-Rac1-wt (Catalog # 12980, Addgene) as described for SKOV3ip-GFP cells under Methods. Rac1 overexpression quantification and verification was completed by western blot and qPCR. […]
Omental tissue was harvested and stored on ice in PBS for no more than 1 hour before analysis. Omenta were blotted dry on lab tissue and weight was measured using an analytical balance (Denver Instruments Company, A -160). […]
Samples were then centrifuged at 4000x g for 10 minutes at 4°C. […] Ketorolac was detected using a UV spectrometer set at UV310. […]

The subject of data set [3] is COX-2. Set-up: method as in PMID 26558612, PMID 10027870. Conditions: cited from earlier work.
In data set [4] the test system is Rac1. Details: method as in earlier work. Conditions: cell-based assays, ovarian tumor cells; ref 23 (R-ketorolac), 27 (S-ketorolac); cited from earlier work.
For data set [5] the following is noted: humans, multiple dosing regimens over 5 days; cited from earlier work.

The values that follow come from paper PMC7791840, “The R-enantiomer of ketorolac reduces ovarian cancer tumor burden in vivo” (BMC Cancer, 2021).

Where a name gives a salt, the structure may show the parent alone.

Take `O=C(c1ccccc1)c1ccc2n1CC[C@H]2C(=O)O` [R-ketorolac]: in data set [1], the “Inhibition of RhoA activity” value was “does not inhibit the activity of RhoA”. Also, the “Accumulation with repeated dosing” value in data set [2] (mice, daily dosing 14 days) was “does not appear to accumulate with repeated dosing”. Further, in data set [2] (mouse, serum, at conclusion of chronic administration (14 day) tumor study, 1 mg/kg twice daily oral, read-out: Steady state blood concentration of R-ketorolac), the concentration at 14 day is about 1400 ng/mL. Moreover, the IC50 is over 100000 nM in data set [3] and 570 nM in data set [4].

With `O=C(c1ccccc1)c1ccc2n1CCC2C(=O)O` (stereo not drawn) [R−/S-ketorolac, ketorolac tromethamine salt], the “Accumulation of enantiomers with multiple dosing” value in data set [5] is listed as “did not result in accumulation of either enantiomer”.
